Read-outs that look alike come from different tables or passages of the source.
What was measured:
[1] = tested on: patients with sarcoma, breast and ovarian carcinoma; conditions: cited from earlier work
[2] = Pharmacokinetics of trabectedin and docetaxel following coadministration in patients with advanced malignancies; format: in vivo, human; conditions: for CL / Vss / clearance / Vd: mean (SD); for Vd: read-out: Vss
Description: FIG. 2 and FIG. 3. Pharmacokinetic parameters of trabectedin and docetaxel following coadministration in patients with advanced malignancies.
A phase I trial combining docetaxel and trabectedin was performed. The objective of this study was to determine the maximum tolerated dose (MTD) of trabectedin in combination with docetaxel (60 mg/m^2 or 75 mg/m^2) administered every 21 days. Additional objectives were to evaluate the safety profile of this combination of drugs and to evaluate the pharmacokinetics of trabectedin and docetaxel when given in combination. The maximum tolerated dose (MTD) relates to the highest dose at which less than one third of the subjects in a dose-level cohort experienced dose-limiting toxicity (DLT).
We designed a dose finding trial with a fixed docetaxel dose of 60 mg/m^2 or 75 mg/m^2 administered intravenously over one hour, followed by one of six trabectedin doses (0.4, 0.6, 0.75, 0.9, 1.1, and 1.3 mg/m^2) administered intravenously over 3 hours, with one hour of rest between the administration of docetaxel and ET-743. This treatment was repeated every 21 days. […] Restricted patients received ≦1 prior chemotherapy regimen whereas unrestricted patients had no limit. In addition, protocol amendment after dose level 2a allowed administration of primary prophylactic G-CSF.

[3] = tested on: human tumour xenografts (melanoma, ovarian and breast carcinoma); conditions: athymic mice; cited from earlier work
[4] = trabectedin 400 μg/m^2 (n = 6) coadministered with 60 mg/m^2 of docetaxel
[5] = trabectedin 600 μg/m^2 (n = 3) coadministered with 60 mg/m^2 of docetaxel
[6] = human, in vivo, intravenous, docetaxel 60 mg/m^2 coadministered with trabectedin 400 μg/m^2 (n = 6)
[7] = human, in vivo, intravenous, docetaxel 60 mg/m^2 coadministered with trabectedin 600 μg/m^2 (n = 4)

| SMILES | Responses in patients [1] | CL [2, 4] | Vss [2, 4] | Terminal t1/2 ([2]; trabectedin 400 μg/m^2 (n = 6) coadministered with 60 mg/m^2 of docetaxel, median (range)) | CL [2, 5] | Vss [2, 5] | Terminal t1/2 ([2]; trabectedin 600 μg/m^2 (n = 3) coadministered with 60 mg/m^2 of docetaxel, median (range)) | Anticancer activity against human tumour xenografts [3] | Terminal t1/2 ([2]; docetaxel 60 mg/m^2 coadministered with trabectedin 400 μg/m^2 (n = 6), median (range)) | clearance [2, 6] | Vd [2, 6] | clearance [2, 7] | Vd [2, 7] | half-life ([2]; human, in vivo, intravenous, docetaxel 60 mg/m^2 coadministered with trabectedin 600 μg/m^2 (n = 4), median (range), read-out: Terminal t1/2 (converted)) | Impact of concomitant administration of trabectedin on the pharmacokinetics of docetaxel ([2]; patients with advanced malignancies) |
| --- | --- | --- | --- | --- | --- | --- | --- | --- | --- | --- | --- | --- | --- | --- | --- |
| COc1cc2c(cc1O)CCN[C@]21CS[C@@H]2c3c(OC(C)=O)c(C)c4c(c3[C@H](COC1=O)N1[C@@H]2[C@H]2c3c(cc(C)c(OC)c3O)C[C@@H]([C@@H]1O)N2C)OCO4 [Trabectedin, Ecteinascidin 743] | Promising ET-743 responses | 127 (61) L/h | 1179 (1402) L | 11.4 (3.3-100) h | 101 (46) L/h | 2754 (1946) L | 37.5 (11.7-98.8) h | potent anticancer activity |  |  |  |  |  |  |  |
| CC(=O)O[C@@]12CO[C@@H]1C[C@H](O)[C@@]1(C)C(=O)[C@H](O)C3=C(C)[C@@H](OC(=O)[C@H](O)[C@@H](NC(=O)OC(C)(C)C)c4ccccc4)C[C@@](O)([C@@H](OC(=O)c4ccccc4)[C@H]21)C3(C)C [Docetaxel, (2R,3S)-N-carboxy-3-phenylisoserine, N-tert-butyl ester, 13-ester with 5β-20-epoxy-1,2α,4,7β,10β, 13α-hexahydroxytax-11-en-9-one 4-acetate 2-benzoate, trihydrate] |  |  |  |  |  |  |  |  | 19.9 (6.7-23) h | 815 mL/min | 405 L | 797 mL/min | 900 L | 38.2 h | not adversely impacted |

Source: patent US20100009906A1, “Anticancer Treatments” (PHARMA MAR, S.A., priority 2006, published 2010)
